Earlier results as cited in patent US12214218B2, “Perfusion modulated tumor dose sculpting with single dose radiotherapy” (MEMORIAL SLOAN KETTERING CANCER CENTER, priority 2019, dated 2025).
Like-named read-outs stand apart in the source and are kept apart here.

Assays:
[1] = test system: wild type mice

Cc1cc(C)c(/C=C2\C(=O)Nc3ccccc32)[nH]1 [Semaxanib/SU5416, Semaxanib]
average half-life (in vivo): 0.5 to 1 h

CNC(=O)c1ccccc1Sc1ccc2c(/C=C/c3ccccn3)n[nH]c2c1 [axitinib]
average half-life (in vivo): 2.5 to 6 h

COc1cc2c(Oc3ccc4[nH]c(C)cc4c3F)ncnc2cc1OCCCN1CCCC1 [cediranib]
average half-life (plasma half-life for cediranib): 22 to 27 h

anginex
half-life (in vivo): 0.833 h

B1: rhASM: Recombinant ASM manufactured for clinical use; orphan drug status for Type B NPD (protein, UniProt P17405 47-631, looked up)
Sphingomyelin …: LALSDSRVLWAPAEAHPLSPQGHPARLHRIVPRLRDVFGWGNLTCPICKGLFTAINLGLKKEPNVARVGSVAIKLCNLLKIAPPAVCQSIVHLFEDDMVEVWRRSVLSPSEACGLLLGSTCGHWDIFSSWNISLPTVPKPPPKPPSPPAPGAPVSRILFLTDLHWDHDYLEGTDPDCADPLCCRRGSGLPPASRPGAGYWGEYSKCDLPLRTLESLLSGLGPAGPFDMVYWTGDIPAHDVWHQTRQDQLRALTTVTALVRKFLGPVPVYPAVGNHESTPVNSFPPPFIEGNHSSRWLYEAMAKAWEPWLPAEALRTLRIGGFYALSPYPGLRLISLNMNFCSRENFWLLINSTDPAGQLQWLVGELQAAEDRGDKVHIIGHIPPGHCLKSWSWNYYRIVARYENTLAAQFFGHTHVDEFEVFYDEETLSRPLAVAFLAPSATTYIGLNPGYRVYQIDGNYSGSSHVVLDHETYILNLTQANIPGAIPHWQLLYRARETYGLPNTLPTAWHNLVYRMRGDMQLFQTFWFLYHKGHPPSEPCGTPCRLATLCAQLSARADSPALCRHLMPDGSLPEAQSLWPRPLFC
toxicity at high doses [1]: non-toxic
